Source: EP0080305A1, “Antiviral 2'-deoxyuridines, their preparation and use” (BEECHAM GROUP PLC, priority 1981, dated 1983)
Where a name gives a salt, the structure may show the parent alone. Read-outs that look alike come from different tables or passages of the source.

How the values were obtained:
[1] = tested on: Herpes simplex type 1 virus (HFEM strain); experiment: Plaque reduction test in Vero cells infected with Herpes simplex type 1 virus; type: cell-based
Protocol: (§1) Vero (African Green Monkey Kidney) cells were grown to confluence in 6 well multidishes, each well being 3.5 cm in diameter. The cells were incubated with Herpes simplex type 1 virus (HFEM strain) and overlaid with 0.5 mL of 0.9% agarose (w/v) in maintenance medium containing the test compound at a range of concentrations from 3 µg/mL in half-log dilution steps. The virus infected cultures were then incubated at 37 °C for 6 days before fixing in 4% formaldehyde solution and staining with carbolfuchsin. The dishes were then examined to find what concentration of test compound causing a 50% reduction in the number of virus plaques formed (PDD50 value) and the minimum concentration of test compound which killed the cell monolayer, leaving a clear zone devoid of cells and virus plaques (MTD).

[2] = tested on: Vero (African Green Monkey Kidney) cells; experiment: Minimum concentration killing the Vero cell monolayer, read in the plaque reduction test; type: cell-based; conditions: minimum concentration which killed the cell monolayer; virus-infected Vero cells, 6 days at 37°C
Protocol: as §1

[3] = as above; type: cell-based, African Green Monkey; conditions: african green monkey; minimum concentration which killed the cell monolayer; virus-infected Vero cells, 6 days at 37°C; read-out: MTD
Protocol: as §1

[4] = concentration causing a 50% reduction in the number of virus plaques, 6 days at 37°C
[5] = same PDD50 values given in µM, 6 days at 37°C, read-out: PDD50 (the source's name)
[6] = Human alphaherpesvirus 1, 144 h, concentration causing a 50% reduction in the number of virus plaques, 6 days at 37°C, read-out: PDD50 (the source's name)
[7] = Human alphaherpesvirus 1, 144 h, same PDD50 values given in µM, 6 days at 37°C, read-out: PDD50 (the source's name)
[8] = Human alphaherpesvirus 1, Vero, 144 h, read-out: PDD50, concentration causing a 50% reduction in the number of virus plaques, 6 days at 37°C
[9] = Human alphaherpesvirus 1, Vero, 144 h, read-out: PDD50, same PDD50 values given in µM, 6 days at 37°C

## NC(Cc1ccccc1)C(=O)OC[C@H]1O[C@@H](n2cc(/C=C/Br)c(=O)[nH]c2=O)C[C@@H]1OC(=O)C(N)Cc1ccccc1 (stereo partly drawn) [Example 7, E-5-(2-Bromovinyl)-3',5'-di-O-phenylalanyl-2'-deoxyuridine bis trifluoroacetate]
[1]; concentration causing a 50% reduction in the number of virus plaques, 6 days at 37°C, bis trifluoroacetate
  PDD50: 0.14 µg/mL
[1]; read-out: PDD50, same PDD50 values given in µM, 6 days at 37°C, bis trifluoroacetate
  IC50: 0.16 µM
[2]
  MTD: >100 µg/mL

## E-5-(2-Bromovinyl)-3',5'-di-L-leucyl-2'-deoxyuridine bis trihydrogenpyrophosphate [Example 41]
[1]; [4]
  PDD50: 0.55 µg/mL
[1]; [5]
  IC50: 0.6 µM
[2]
  MTD: >100 µg/mL

## E-5-(2-Bromovinyl)-5'-O-phenylalanyl-2'-deoxyuridine trifluoroacetate [Example 9]
[1]; [4]
  PDD50: 0.19 µg/mL
[1]; [5]
  IC50: 0.32 µM
[2]
  MTD: >100 µg/mL

## E-5-(2-bromovinyl)-3',5'-di-L-lysyl-2'-deoxyuridine tetrakis trifluoroacetate dihydrate [Example 40]
[1]; [4]
  PDD50: 0.19 µg/mL
[1]; [5]
  IC50: 0.18 µM
[2]
  MTD: >100 µg/mL

## CC(C)[C@H](NC(=O)OC(C)(C)C)C(=O)OC[C@H]1O[C@@H](n2cc(/C=C/Br)c(=O)[nH]c2=O)C[C@@H]1OC(=O)[C@@H](NC(=O)OC(C)(C)C)C(C)C [Example 22, E-5-(2-Bromovinyl)-3',5'-di-(t-butoxy-carbonyl-L-valyl)-2'-deoxyuridine]
[1]; [6]
  IC50: > 100 µg/mL
[3]
  MCC at 144 h: > 100 µg/mL

## C[C@H](NC(=O)OC(C)(C)C)C(=O)OC[C@H]1O[C@@H](n2cc(/C=C/Br)c(=O)[nH]c2=O)C[C@@H]1OC(=O)[C@H](C)NC(=O)OC(C)(C)C [Example 24, E-5-(2-Bromovinyl)-3',5'-di-(t-butoxy-carbonyl-L-alanyl)-2'-deoxyuridine]
[1]; [6]
  IC50: 0.62 µg/mL
[1]; [7]
  IC50: 0.92 µM
[3]
  MCC at 144 h: > 100 µg/mL

## E-5-(2-Bromovinyl)-3',5'-di-glycyl-2'-deoxyuridine bis bisulphate [Example 17]
[1]; [4]
  PDD50: 0.49 µg/mL
[1]; [5]
  IC50: 0.76 µM
[2]
  MTD: >100 µg/mL

## NC(Cc1ccccc1)C(=O)OC[C@H]1O[C@@H](n2cc(/C=C/Br)c(=O)[nH]c2=O)C[C@@H]1OC(=O)C(N)Cc1ccccc1 (stereo partly drawn) [Example 10]
[1]; [8]
  IC50: 0.19 µg/mL
[1]; [9]
  IC50: 0.24 µM
[3]
  MCC at 144 h: > 100 µg/mL

## O=C(OC[C@H]1O[C@@H](n2cc(/C=C/Br)c(=O)[nH]c2=O)C[C@@H]1OC(=O)[C@@H]1CCCN1)[C@@H]1CCCN1 [Example 35, E-5-(2-Bromovinyl)-3',5'-di-L-prolyl-2'-deoxyuridine bis trifluoroacetate]
[1]; [8]
  IC50: 0.22 µg/mL
[1]; [9]
  IC50: 0.29 µM
[3]
  MCC at 144 h: > 100 µg/mL

## CC(C)C[C@H](N)C(=O)OC[C@H]1O[C@@H](n2cc(/C=C/Br)c(=O)[nH]c2=O)C[C@@H]1OC(=O)[C@@H](N)CC(C)C [Example 18, E-5-(2-bromovinyl)-3',5'-di-L-leucyl-2'-deoxyuridine bis bisulphate salt]
[1]; [4]
  PDD50: 0.28 µg/mL
[1]; read-out: PDD50, same PDD50 values given in µM, 6 days at 37°C
  IC50: 0.37 µM
[2]
  MTD: >100 µg/mL

## CC(C)(C)OC(=O)N[C@@H](Cc1ccccc1)C(=O)O[C@H]1C[C@H](n2cc(/C=C/Br)c(=O)[nH]c2=O)O[C@@H]1CO [Example 2, E-5-(2-bromovinyl)-3'-O-(tertbutoxycarbonylphenylalanyl)-2'-deoxyuridine]
[1]; [6]
  IC50: 0.16 µg/mL
[1]; [7]
  IC50: 0.28 µM
[3]
  MCC at 144 h: > 100 µg/mL

## N[C@H](Cc1ccccc1)C(=O)OC[C@H]1O[C@@H](n2cc(/C=C/Br)c(=O)[nH]c2=O)C[C@@H]1OC(=O)[C@H](N)Cc1ccccc1 [Example 31, E-5-(2-Bromovinyl)-3',5'-di-D-phenylalanyl--2'-deoxyuridine bis trifluoroacetate]
[1]; [8]
  IC50: 0.55 µg/mL
[1]; [9]
  IC50: 0.64 µM
[3]
  MCC at 144 h: > 100 µg/mL

## CC(C)(C)OC(=O)N[C@@H](CCC(N)=O)C(=O)OC[C@H]1O[C@@H](n2cc(/C=C/Br)c(=O)[nH]c2=O)C[C@@H]1OC(=O)[C@H](CCC(N)=O)NC(=O)OC(C)(C)C [Example 25, E-5-(2-Bromovinyl)-3',5'-di-(t-butoxycarbonyl-L-glutaminyl)-2'-deoxyuridine]
[1]; [6]
  IC50: 0.47 µg/mL
[1]; [7]
  IC50: 0.6 µM
[3]
  MCC at 144 h: > 100 µg/mL

## CC[C@H](C)[C@H](NC(=O)OC(C)(C)C)C(=O)OC[C@H]1O[C@@H](n2cc(/C=C/Br)c(=O)[nH]c2=O)C[C@@H]1OC(=O)[C@@H](NC(=O)OC(C)(C)C)[C@@H](C)CC [Example 23, E-5-(2-Bromovinyl)-3',5'-di-(t-butoxy-carbonyl-L-isoleucyl)-2'-deoxyuridine]
[1]; [6]
  IC50: > 100 µg/mL
[3]
  MCC at 144 h: > 100 µg/mL

## CC(C)C[C@@H](NC(=O)OC(C)(C)C)C(=O)OC[C@H]1O[C@@H](n2cc(/C=C/Br)c(=O)[nH]c2=O)C[C@@H]1OC(=O)[C@@H](CC(C)C)NC(=O)OC(C)(C)C [Example 19, E-5-(2-Bromovinyl)-3',5'-di-(t-butoxy-carbonyl-D-leucyl)-2'-deoxyuridine]
[1]; [6]
  IC50: > 100 µg/mL
[3]
  MCC at 144 h: > 100 µg/mL

## CC[C@H](C)[C@H](N)C(=O)OC[C@H]1O[C@@H](n2cc(/C=C/Br)c(=O)[nH]c2=O)C[C@@H]1OC(=O)[C@@H](N)[C@@H](C)CC [Example 34, E-5-(2-Bromovinyl)-3',5'-di-L-isoleucyl-2'-deoxyuridine bis trifluoroacetate]
[1]; [8]
  IC50: 0.4 µg/mL
[1]; [9]
  IC50: 0.51 µM
[3]
  MCC at 144 h: > 100 µg/mL

## O=C(OC[C@H]1O[C@@H](n2cc(/C=C/Br)c(=O)[nH]c2=O)C[C@@H]1O)[C@@H]1CCCN1 [Example 36, E-5-(2-Bromovinyl)-5'-L-prolyl-2'-deoxyuridine trifluoroacetate]
[1]; [8]
  IC50: 0.55 µg/mL
[1]; [9]
  IC50: 1.01 µM
[3]
  MCC at 144 h: > 100 µg/mL

## E-5-(2-Bromovinyl)-3',5'-di-L-alanyl-2'-deoxyuridine bis trifluoroacetate [Example 38]
[1]; [4]
  PDD50: 0.26 µg/mL
[1]; [5]
  IC50: 0.37 µM
[2]
  MTD: >100 µg/mL

## NCC(=O)OC[C@H]1O[C@@H](n2cc(/C=C/Br)c(=O)[nH]c2=O)C[C@@H]1O [Example 13, E-5-(2-Bromovinyl)-5'-glycyl-2'-deoxyuridine trifluoroacetate]
[1]; [8]
  IC50: 0.94 µg/mL
[1]; [9]
  IC50: 1.87 µM
[3]
  MCC at 144 h: > 100 µg/mL
